Measured values taken from patent publication US9944986B2, “Therapeutic targets for Alzheimer's disease” (The University of Birmingham, priority 2012, dated 2018).

Key:
[1] = system: brain; assay: T2 weighted MRI of brain after mTOR inhibition/activation; type: in vivo; details: SD rats; rapamycin 0.2 mg/kg i.p., ketamine 30 mg/kg i.p.; n=3
Excerpt: (§1) There were three animals (n=3) in each group. Animals were sacrificed and the brain removed and frozen for imaging studies.

[2] = system: brain; assay: MSI imaging of brain sections (phosphatidylcholines, choline, creatine); type: in vivo; details: SD rats, rapamycin 0.2 mg/kg i.p., ketamine 30 mg/kg i.p.
Description: as §1
All MSI imaging experiments were performed on a Bruker ultrafleXtreme TOF/TOF mass spectrometer. For matrix evaluation, 4 serial sections of thickness 10 μm from sham control brain S2 were acquired using a Leica CM 1850 Cryostat and subsequently thaw mounted onto an ITO coated glass slide. Each section in turn was coated with 15 mL of 20 mg mL^−1 of CHCA in CH3OH, 0.1% TFA) using an artist airbrush while the remaining 2 sections were covered. Data were collected over the mass range m/z 60-1400. MSI experiments of a single section from each group (Rapa, Ket and Control) were conducted. […]. Images were acquired with a pixel size of 100 μm×100 μm.

CNC1(c2ccccc2Cl)CCCCC1=O (stereo not shown) [ketamine]
T2 weighted MRI images versus control animals [1]: clear differences in the T2 weighted MRI images
phosphatidylcholine species in the brain (ion images) relative to control [2]: clear differences induced by mTOR inhibition or activation
choline levels in the brain ([2]; vs control): measureable changes
creatine levels in the brain ([2]; vs control): measureable changes
